Assay results: patent US6407104B1, “Pyrrolo[1,2-a]pyrazine spla2 inhibitor” (Shionogi & Co., Ltd., priority 1998, dated 2002)

Legend:
[1] = biological target: T1, recombinant human secretory phospholipase A2 (Homo sapiens, UniProt P14555); assay: Inhibition Test of Human Secretory Phospholipase A2 (chromogenic assay); format: biochemical; details: sPLA2 50 ng/well, 40° C., 30 minutes, OD 405 nm, 96 well microtiterplate
T1 sequence (P14555 21-144): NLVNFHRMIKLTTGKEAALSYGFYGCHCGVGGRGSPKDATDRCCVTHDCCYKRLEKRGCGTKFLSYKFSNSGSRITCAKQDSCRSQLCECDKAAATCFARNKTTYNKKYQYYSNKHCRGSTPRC
Description: Test Example: Inhibition Test of Human Secretory Phospholipase A2
In order to identify and evaluate an inhibitor of recombinant human secretory phospholipase A2, the following chromogenic assay is utilized. The assay herein has been applied for high volume screening wherein 96 well microtiterplate is used. A general explanation for such assay is described in “Analysis of Human Synovial Fluid Phospholipase A2 on Short Chain Phosphatidylcholine-Mixed Micelles: Development of a Spectrophotometric Assay Suitable for a Micortiterplate Reader” (Analytical Biochemistry, 204, pp 190-197, 1992 by Laure. J. Reynolds. Lori L. Hughes and Edward A. Dennis: the disclosure of which is incorporated herein for reference.
pH 7.5 (adjusted with NaOH)
pH 4.5 (adjusted with acetic acid)
1 mg of sPLA2 is dissolved in 1 ml of an enzyme buffer. Thereafter, the solution is maintained at 4° C.
In the assay, 5 μl of the solution is diluted with 1995 μl of the reaction buffer to be used.
198 mg of 5,5′-dithiobis-2-[…] (manufactured by Wako Pure Chemicals) is dissolved in 100 ml of H2O
H 7.5 (adjusted with NaOH)
100 mg of racemic 1,2-bis(heptanoylthio)-1,2-dideoxy-sn-glycero-3-phospholylcholine is dissolved in 1 ml of chloroform.
624.9 mg of Triton-X 100 is dissolved in the reaction buffer.
Enzyme Reaction: for 1 Plate of Microtiterplate
1) 0.106 ml of the substrate solution is put in a centrifugal tube, and nitrogen gas is jetted to remove the solvent. 0.54 ml of Triton-X 100 is added thereto, the mixture is stirred, thereafter it is sonified in a bath type sonification to dissolve. To the resulting product are added 17.8 ml of the reaction buffer and 0.46 ml of DTNB, and 0.18 ml each of the admixture is poured to wells of the 96 well microtiterplate.
2) 10 μl of a test compound (or solvent blank) are added in accordance with alignment of plates which has been previously set.
3) Incubation is effected at 40° C. for 15 minutes.
4) 20μl of an enzyme solution (sPLA2) which has been previously diluted (50 ng/well) are added to start reaction (40° C., 30 minutes).
5) Changes in absorbancy for 30 minutes are measured by a plate reader, and inhibition activity was calculated (OD: 405 nm).
6) IC50 was determined by plotting log concentration with respect to inhibition values within 10% to 90% inhibiting range.

IC50 [1] [nM] | melting point [°C] | SMILES
703 | 189 to 190 | CCc1c(C(=O)C(N)=O)c2c(OCC(=O)OC)nc(C)cn2c1Cc1ccc(OC)cc1 [Compound I-33]
26 | 200 to 201.5 | CCc1c(C(=O)C(N)=O)c2c(OCC(=O)O)nc(C)cn2c1Cc1ccc(OC)cc1 [Compound I-34]
182 | 179.5 to 181 | CCc1c(C(=O)C(N)=O)c2c(OCC(=O)OC)nc(C)cn2c1Cc1cccc(F)c1 [Compound I-35]
11 | 190.5 to 193 | CCc1c(C(=O)C(N)=O)c2c(OCC(=O)O)nc(C)cn2c1Cc1cccc(F)c1 [Compound I-36]
726 | 201 to 202 | CCc1c(C(=O)C(N)=O)c2c(OCC(=O)OC)nc(CO)cn2c1Cc1ccccc1 [Compound I-37]
33 | 211 to 212 | CCc1c(C(=O)C(N)=O)c2c(OCC(=O)O)nc(CO)cn2c1Cc1ccccc1 [Compound I-38]
151 | 190 to 191 | CCc1c(C(=O)C(N)=O)c2c(OCC(=O)OC)nc(C(C)C)cn2c1Cc1ccccc1 [Compound I-39]
12 | 211 to 213 | CCc1c(C(=O)C(N)=O)c2c(OCC(=O)O)nc(C(C)C)cn2c1Cc1ccccc1 [Compound I-40]
107 | 154 to 156 | CCc1cn2c(Cc3ccccc3)c(CC)c(C(=O)C(N)=O)c2c(OCC(=O)OC)n1 [Compound I-41]
10 | 197 to 198 | CCc1cn2c(Cc3ccccc3)c(CC)c(C(=O)C(N)=O)c2c(OCC(=O)O)n1 [Compound I-42]
41 | 203 to 205 | CCc1c(C(=O)C(N)=O)c2c(OCC(=O)OC)nc(-c3ccccc3)cn2c1Cc1ccccc1 [Compound I-43]
7 | 233 to 234 | CCc1c(C(=O)C(N)=O)c2c(OCC(=O)O)nc(-c3ccccc3)cn2c1Cc1ccccc1 [Compound I-44]
117 | 129 to 130 | CCc1c(C(=O)C(N)=O)c2c(OCC(=O)OC)nc(CC(C)C)cn2c1Cc1ccccc1 [Compound I-45]
10 | 216 to 217 | CCc1c(C(=O)C(N)=O)c2c(OCC(=O)O)nc(CC(C)C)cn2c1Cc1ccccc1 [Compound I-46]
211 | 178 to 180 | CCc1c(C(=O)C(N)=O)c2c(OCC(=O)OC)nc(Cc3ccccc3)cn2c1Cc1ccccc1 [Compound I-49]
17 | 200 to 202 | CCc1c(C(=O)C(N)=O)c2c(OCC(=O)O)nc(Cc3ccccc3)cn2c1Cc1ccccc1 [Compound I-50]
61 | 134.5 to 136 | CCc1c(C(=O)C(N)=O)c2c(OCC(=O)OC)nc(C)cn2c1Cc1ccccc1-c1cccs1 [Compound I-51]
59 | 147 to 149 | CCc1c(C(=O)C(N)=O)c2c(OCC(=O)OC)nc(C)cn2c1Cc1ccccc1C#Cc1ccccc1 [Compound I-53]
32 | 161 to 163 | CCc1c(C(=O)C(N)=O)c2c(OCC(=O)OC)nc(C)cn2c1Cc1ccccc1Oc1ccccc1 [Compound I-55]
6 | 208 to 210 | CCc1c(C(=O)C(N)=O)c2c(OCC(=O)O)nc(C)cn2c1Cc1ccccc1Oc1ccccc1 [Compound I-56, [7-Ethyl-3-methyl-8-oxamoyl-6-(2-phenyloxybenzyl)pyrrolo [1,2-a]pyrazin-1-yl]oxyacetic acid]
57 | 179.5 to 181 | CCc1c(C(=O)C(N)=O)c2c(OCC(=O)OC)nc(C)cn2c1Cc1cccc(-c2ccc(C)s2)c1 [Compound I-63]

IC50 [1] [nM] | melting point [°C] | SMILES
6 | 190.5 to 193 | CCc1c(C(=O)C(N)=O)c2c(OCC(=O)O)nc(C)cn2c1Cc1cccc(-c2ccc(C)s2)c1 [Compound I-64]
33 | 167.5 to 169.5 | CCc1c(C(=O)C(N)=O)c2c(OCC(=O)OC)nc(C)cn2c1Cc1ccccc1-c1ccc(C)cc1 [Compound I-69]
5 | 179.5 to 181.5 | CCc1c(C(=O)C(N)=O)c2c(OCC(=O)O)nc(C)cn2c1Cc1ccccc1-c1ccc(C)cc1 [Compound I-70]
901 | 190 to 192 | CCc1c(C(=O)C(N)=O)c2c(OCC(=O)OC)nc(C)cn2c1Cc1ccccc1C(=O)c1ccccc1 [Compound I-71]
13 | 131 to 133 | CCc1c(C(=O)C(N)=O)c2c(OCC(=O)O)nc(C)cn2c1Cc1ccccc1C(=O)c1ccccc1 [Compound I-72]
129 | 215 to 217 | CCc1c(C(=O)C(N)=O)c2c(OCC(=O)OC)nc(C)cn2c1Cc1ccccc1CCc1ccccc1 [Compound I-73]
6 | 189 to 191 | CCc1c(C(=O)C(N)=O)c2c(OCC(=O)O)nc(C)cn2c1Cc1ccccc1CCc1ccccc1 [Compound I-74]
1460 | 210 to 211.5 | COC(=O)COc1nc(C)cn2c(Cc3ccccc3)c(C3CC3)c(C(=O)C(N)=O)c12 [Compound I-75]
29 | 194.5 to 196 | Cc1cn2c(Cc3ccccc3)c(C3CC3)c(C(=O)C(N)=O)c2c(OCC(=O)O)n1 [Compound I-76]
1380 | 179 to 182.5 | COC(=O)COc1nc(C)cn2c(Cc3ccc(F)cc3)c(C3CC3)c(C(=O)C(N)=O)c12 [Compound I-77]
60 | 185 to 187 | Cc1cn2c(Cc3ccc(F)cc3)c(C3CC3)c(C(=O)C(N)=O)c2c(OCC(=O)O)n1 [Compound I-78]
62 | 193 to 194 | CCc1c(C(=O)C(N)=O)c2c(OCC(=O)OC)nc(C3CCCCC3)cn2c1Cc1ccccc1 [Compound I-79]
6 | 227 to 230 | CCc1c(C(=O)C(N)=O)c2c(OCC(=O)O)nc(C3CCCCC3)cn2c1Cc1ccccc1 [Compound I-80]
201 | 161.5 to 162.5 | CCc1c(C(=O)C(N)=O)c2c(OCC(=O)OC)nc(C3CCCCC3)cn2c1Cc1ccccc1-c1ccccc1 [Compound I-81]
5 | 200 to 201.5 | CCc1c(C(=O)C(N)=O)c2c(OCC(=O)O)nc(C3CCCCC3)cn2c1Cc1ccccc1-c1ccccc1 [Compound I-82]
116 | 205 to 207 | COC(=O)COc1nc(C)cn2c(Cc3ccccc3)c(C)c(C(=O)C(N)=O)c12 [Compound I-83]
8 | 199.5 to 201 | Cc1cn2c(Cc3ccccc3)c(C)c(C(=O)C(N)=O)c2c(OCC(=O)O)n1 [Compound I-84]
370 | 203 to 204 | CCc1c(C(=O)C(N)=O)c2c(OCC(=O)OC)nc(C)cn2c1Cc1ccc(C)s1 [Compound I-85]
11 | 216.5 to 218 | CCc1c(C(=O)C(N)=O)c2c(OCC(=O)O)nc(C)cn2c1Cc1ccc(C)s1 [Compound I-86]
129 | 186 to 187 | CCc1c(C(=O)C(N)=O)c2c(OCC(=O)OC)nc(C)cn2c1Cc1csc2ccccc12 [Compound I-87]
